Experimental data from patent publication US8835469B2 (Cadila Healthcare Limited, priority 2009, dated 2014).

Biological target: T1, glucokinase (GK) enzyme (Homo sapiens, UniProt P35557)
T1 sequence (P35557 1-465): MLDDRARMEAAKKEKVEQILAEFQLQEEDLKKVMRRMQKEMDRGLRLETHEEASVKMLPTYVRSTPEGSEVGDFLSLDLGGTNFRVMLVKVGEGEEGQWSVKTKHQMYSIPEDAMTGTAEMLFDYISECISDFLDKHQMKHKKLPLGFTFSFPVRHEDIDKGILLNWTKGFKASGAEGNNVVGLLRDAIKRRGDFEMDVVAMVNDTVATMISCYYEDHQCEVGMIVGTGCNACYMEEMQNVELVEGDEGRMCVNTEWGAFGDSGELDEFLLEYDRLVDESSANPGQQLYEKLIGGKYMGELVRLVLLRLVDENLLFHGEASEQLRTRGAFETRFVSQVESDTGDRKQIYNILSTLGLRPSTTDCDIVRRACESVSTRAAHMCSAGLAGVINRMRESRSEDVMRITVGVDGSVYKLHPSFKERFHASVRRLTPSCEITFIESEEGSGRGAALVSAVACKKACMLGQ
Assay: In-vitro glucokinase (GK) activation assay (coupled with glucose-6-phosphate dehydrogenase, absorbance at 340)
Type: biochemical
Settings: glucose 2.5 mM, read-out: % of GK activity wrt DMSO; for activity at 0.1 µM: 0.1 uM compound; for activity at 1 µM: 1 uM compound; for activity at 5 µM: 5 uM compound; for activity at 10 µM: 10 uM compound
Description: The compound of the invention was incubated with glucokinase (GK) enzyme (0.2 units) for 10 minutes in assay buffer at 26° C. After incubation, addition of glucose-6-phosphate dehydrogenase (2.5 units), ATP (1 mM) and glucose (2.5 mM). Absorbance is measured at 340 nm for 15 minutes with 10 second interval using UV transparent plate in kinetic mode on Spectramax-190 at 30° C.

SMILES	activity at 0.1 µM	activity at 1 µM	activity at 5 µM	activity at 10 µM
Cc1nnc(-c2ccc(Oc3cc(OC4CCN(C)C4=O)cc(C(=O)Nc4ncc(C(=O)O)s4)c3)cc2)o1 (stereo not drawn) [Example 15, 2-(3-(4-(5-Methyl-1,3,4-oxadiazol-2-yl)phenoxy)-5-((1-methyl-2-oxopyrrolidin-3-yl)oxy)benzamido)thiazole-5-carboxylic acid]	95.5%	126%	206%	237%
Cc1csc(NC(=O)c2cc(Oc3ccc(-c4nnc(C)o4)cc3)cc(OC3CCN(C(C)C)C3=O)c2)n1 (stereo not drawn) [Example 16, 3((1-Isopropyl-2-oxopyrrolidin-3-yl)oxy)-5-(4-(5-methyl-1,3,4-oxadiazol-2-yl)phenoxy)-N-(4-methylthiazol-2-yl)benzamide]	106%	169%	259%	280%
Cc1nnc(-c2ccc(Oc3cc(OC4CCN(C(C)C)C4=O)cc(C(=O)Nc4ncc(C)s4)c3)cc2)o1 (stereo not drawn) [Example 17, 3((1-Isopropyl-2-oxopyrrolidin-3-yl)oxy)-5-(4-(5-methyl-1,3,4-oxadiazol-2-yl)phenoxy)-N-(5-methylthiazol-2-yl)benzamide]	125%	158%	192%	178%
Cc1nnc(-c2ccc(Oc3cc(OC4CCN(C(C)C)C4=O)cc(C(=O)Nc4nccs4)c3)cc2)o1 (stereo not drawn) [Example 18, 3((1-Isopropyl-2-oxopyrrolidin-3-yl)oxy)-5-(4-(5-methyl-1,3,4-oxadiazol-2-yl)phenoxy)-N-(thiazol-2-yl)benzamide]	125%	201%	253%	280%
Cc1csc(NC(=O)c2cc(Oc3ccc(-c4nnc(C)o4)cc3)cc(OC3CCN(C4CC4)C3=O)c2)n1 (stereo not drawn) [Example 19, 3((1-Cyclopropyl-2-oxopyrrolidin-3-yl)oxy)-5-(4-(5-methyl-1,3,4-oxadiazol-2-yl)phenoxy)-N-(4-methylthiazol-2-yl)benzamide]	114%	208%	305%	282%
Cc1nnc(-c2ccc(Oc3cc(OC4CCN(C5CC5)C4=O)cc(C(=O)Nc4ncc(C)s4)c3)cc2)o1 (stereo not drawn) [Example 20, 3((1-Cyclopropyl-2-oxopyrrolidin-3-yl)oxy)-5-(4-(5-methyl-1,3,4-oxadiazol-2-yl)phenoxy)-N-(5-methylthiazol-2-yl)benzamide]	121%	188%	208%	196%
Cc1nnc(-c2ccc(Oc3cc(OC4CCN(C5CC5)C4=O)cc(C(=O)Nc4nccs4)c3)cc2)o1 (stereo not drawn) [Example 21, 3((1-Cyclopropyl-2-oxopyrrolidin-3-yl)oxy)-5-(4-(5-methyl-1,3,4-oxadiazol-2-yl)phenoxy)-N-(thiazol-2-yl)benzamide]	120%	213%	278%	281%
Cc1csc(NC(=O)c2cc(Oc3ccc(-c4noc(C)n4)cc3)cc(OC3CCN(C)C3=O)c2)n1 (stereo not drawn) [Example 22, 3-(4-(5-Methyl-1,2,4-oxadiazol-3-yl)phenoxy)-5-((1-methyl-2-oxopyrrolidin-3-yl)oxy)-N-(4-methylthiazol-2-yl)benzamide]	163%	283%	347%	320%
Cc1nc(-c2ccc(Oc3cc(OC4CCN(C)C4=O)cc(C(=O)Nc4ncc(C)s4)c3)cc2)no1 (stereo not drawn) [Example 23, 3-(4-(5-Methyl-1,2,4-oxadiazol-3-yl)phenoxy)-5-((1-methyl-2-oxopyrrolidin-3-yl)oxy)-N-(5-methylthiazol-2-yl)benzamide]	168%	250%	287%	282%

Other lines, results leading:

activity at 0.1 µM	activity at 1 µM	activity at 5 µM	activity at 10 µM	SMILES
146%	147%	173%	189%	Cc1cc(NC(=O)c2cc(Oc3ccc(-c4nnc(C)o4)cc3)cc(OC3CCN(C)C3=O)c2)n[nH]1 (stereo not drawn) [Example 24, 3-(4-(5-Methyl-1,3,4-oxadiazol-2-yl)phenoxy)-N-(5-methyl-1H-pyrazol-3-yl)-5-((1-methyl-2-oxopyrrolidin-3-yl)oxy)benzamide]
125%	149%	203%	208%	CCOC(=O)c1cnc(NC(=O)c2cc(Oc3ccc(-c4nnc(C)o4)cc3)cc(OC3CCN(C)C3=O)c2)s1 (stereo not drawn) [Example 25, Ethyl 2-(3-(4-(5-methyl-1,3,4-oxadiazol-2-yl)phenoxy)-5-((1-methyl-2-oxopyrrolidin-3-yl)oxy)benzamido)thiazole-5-carboxylate]
109%	205%	339%	357%	CCOC(=O)c1csc(NC(=O)c2cc(Oc3ccc(-c4nnc(C)o4)cc3)cc(OC3CCN(C)C3=O)c2)n1 (stereo not drawn) [Example 26, Ethyl 2-(3-(4-(5-methyl-1,3,4-oxadiazol-2-yl)phenoxy)-5-((1-methyl-2-oxopyrrolidin-3-yl)oxy)benzamido)thiazole-4-carboxylate]
177%	262%	355%	365%	CCc1nnc(-c2ccc(Oc3cc(OC4CCN(C)C4=O)cc(C(=O)Nc4nc(C)cs4)c3)cc2)o1 (stereo not drawn) [Example 27, 3-(4-(5-Ethyl-1,3,4-oxadiazol-2-yl)phenoxy)-5-((1-methyl-2-oxopyrrolidin-3-yl)oxy)-N-(4-methylthiazol-2-yl)benzamide]
131%	248%	336%	338%	CC(C)Cc1nnc(-c2ccc(Oc3cc(OC4CCN(C)C4=O)cc(C(=O)Nc4nccs4)c3)cc2)o1 (stereo not drawn) [Example 28, 3-(4-(5-Isobutyl-1,3,4-oxadiazol-2-yl)phenoxy)-5-((1-methyl-2-oxopyrrolidin-3-yl)oxy)-N-(thiazol-2-yl)benzamide]
167%	268%	335%	347%	CCc1nnc(-c2ccc(Oc3cc(OC4CCN(C)C4=O)cc(C(=O)Nc4nccs4)c3)cc2)o1 (stereo not drawn) [Example 29, 3-(4-(5-Ethyl-1,3,4-oxadiazol-2-yl)phenoxy)-5-((1-methyl-2-oxopyrrolidin-3-yl)oxy)-N-(thiazol-2-yl)benzamide]
126%	249%	370%	386%	Cc1csc(NC(=O)c2cc(Oc3ccc(-c4nnc(CC(C)C)o4)cc3)cc(OC3CCN(C)C3=O)c2)n1 (stereo not drawn) [Example 30, 3-(4-(5-Isobutyl-1,3,4-oxadiazol-2-yl)phenoxy)-5-((1-methyl-2-oxopyrrolidin-3-yl)oxy)-N-(4-methylthiazol-2-yl)benzamide]
146%	295%	356%	343%	Cc1csc(NC(=O)c2cc(Oc3ccc(-c4nnc(-c5ccccc5)o4)cc3)cc(OC3CCN(C)C3=O)c2)n1 (stereo not drawn) [Example 31, 3-((1-Methyl-2-oxopyrrolidin-3-yl)oxy)-N-(4-methylthiazol-2-yl)-5-(4-(5-phenyl-1,3,4-oxadiazol-2-yl)phenoxy)benzamide]
187%	304%	366%	382%	CN1CCC(Oc2cc(Oc3ccc(-c4nnc(C5CC5)o4)cc3)cc(C(=O)Nc3nccs3)c2)C1=O (stereo not drawn) [Example 32, 3-(4-(5-Cyclopropyl-1,3,4-oxadiazol-2-yl)phenoxy)-5-((1-methyl-2-oxopyrrolidin-3-yl)oxy)-N-(thiazol-2-yl)benzamide]
201%	309%	383%	375%	Cc1csc(NC(=O)c2cc(Oc3ccc(-c4nnc(C5CC5)o4)cc3)cc(OC3CCN(C)C3=O)c2)n1 (stereo not drawn) [Example 33, 3-(4-(5-Cyclopropyl-1,3,4-oxadiazol-2-yl)phenoxy)-5-((1-methyl-2-oxopyrrolidin-3-yl)oxy)-N-(4-methylthiazol-2-yl)benzamide]
182%	350%	396%	337%	CN1CCC(Oc2cc(Oc3ccc(-c4nnc(-c5ccccc5)o4)cc3)cc(C(=O)Nc3nccs3)c2)C1=O (stereo not drawn) [Example 34, 3((1-Methyl-2-oxopyrrolidin-3-yl)oxy)-5-(4-(5-phenyl-1,3,4-oxadiazol-2-yl)phenoxy)-N-(thiazol-2-yl)benzamide]
181%	322%	382%	366%	CCN1CCC(Oc2cc(Oc3ccc(-c4nnc(C)o4)cc3)cc(C(=O)Nc3nccs3)c2)C1=O (stereo not drawn) [Example 35, 3((1-Ethyl-2-oxopyrrolidin-3-yl)oxy)-5-(4-(5-methyl-1,3,4-oxadiazol-2-yl)phenoxy)-N-(thiazol-2-yl)benzamide]
